Results taken from patent US20220023231A1, “METHOD OF TREATING POSTPRANDIAL INFLAMMATION AND PREVENTING WEIGHT GAIN” (DASMAN DIABETES INSTITUTE, priority 2020, published 2022).

What was measured:
THP-1 cells [1] = assay: Flow cytometry (FACS) assessment of lipid accumulation in TNF-α stimulated THP-1 derived macrophages; format: cell-based, Human; settings: in response to the presence of TNF-α
Procedure: (§1) Cell culture: Human monocytic leukemia cell line (THP-1) cells were purchased from American Type Culture Collection (ATCC). Cell cultures were maintained in RPMI-1640 culture medium (Gibco, Life Technologies, Grand Island, USA) supplemented with 10% fetal bovine serum (Gibco, Life Technologies, Grand Island, N.Y., USA), 2 mM glutamine (Gibco, Invitrogen, Grand Island, N.Y., USA), 1 mM sodium pyruvate, 10 mM HEPES, 100 ug/m1 Normocin 50 U/ml penicillin and 50 μg/m1 streptomycin (P/S; Gibco, Invitrogen, Grand Island, N.Y., USA) and incubated at 37° C. (with humidity) in 5% CO2.
(§2) Cell stimulation: Prior to stimulation, THP-1 cells were plated in 24-well plates (Costar, Corning Incorporated, Corning, N.Y., USA) at 5×10^5 cells/well cell density unless indicated otherwise. […]

THP-1 cells [2] = assay: Oil Red O staining of lipid accumulation in TNF-α stimulated THP-1 derived macrophages; format: cell-based, Human; settings: in response to TNF-α (10 ng/ml)
Procedure: as §1, §2
Oil Red O staining: To determine the degree of lipid accumulation, the accumulation of cytoplasmic triglycerides in cells were measured by staining with Oil Red O (SigmaAldrich, St Louis, Mo., USA). […]

THP-1 cells [3] = assay: IL-1β ELISA and TNF-α / CD11b mRNA expression in macrophage cells after TNF-α; format: cell-based, Human; settings: in response to TNF-α treatment
Procedure: as §1, §2

human macrophages = assay: Inflammatory and infiltration marker gene expression in human macrophages exposed to palmitic acid; format: cell-based; settings: 30 minutes pre-treatment before addition of palmitic acid
macrophage = assay: Fatty acid uptake related gene expression and intracellular fat in macrophages/monocytes exposed to palmitic acid; format: cell-based
[4] = test system: pro-inflammatory monocytes (CD45+/Ly6C/CD11b+ cells); assay: Acute high fat food feeding in mice, pro-inflammatory monocytes in blood by flow cytometry; format: in vivo, mouse
Procedure: Further experiments were developed to test the utility of Triacsin C as an anti-inflammatory and/or weight gain prevention drug in a mouse model. Base line blood samples were taken from each mouse before feeding. Mice were then administered either Triacsin C (10 mg/m1) or a vehicle (control) in a drinkable form 30 minutes prior to introducing them to high fat food. Four hours after food consumption another blood sample was collected from each mouse and the inflammatory response was measured using flow cytometry to look for pro-inflammatory monocytes (CD45^+/Ly6C/CD11b^+ cells). (See FIGS. 7(A)-7(B)) The experiment was repeated 5 times on non-consecutive days and also confirmed that the dose was safe.
(§3) A further experiment was designed to test whether constant daily doses of Triacsin C could prevent weight gain (or the development of obesity and other weight gain related diseases). […] Mice were placed on a constant high fat diet (HFD) for up to 5 weeks in the presence of a daily (drinkable) dose of either Triacsin C or the vehicle control (FIG. 9(A)).

[5] = Constant high fat diet (HFD) in mice with daily drinkable dose; format: in vivo, mouse
From the text: as §3

[6] = daily dose, HFD, versus vehicle control
[7] = low daily drinkable dose, HFD up to 5 weeks

Row | Compound | lipid accumulation (FACS, cell size and granulation) (THP-1 cells [1]) | lipid accumulation (Oil Red O staining) (THP-1 cells [2]) | inflammatory markers (IL-1B protein, TNF-α mRNA, CD11b mRNA) (THP-1 cells [3]) | infiltration markers (CD11b, CCR2, CD80) (human macrophages) | upregulation of monocytic inflammatory markers (IL-1b, CD11c, HLA-DR) (human macrophages) | amount of intracellular fat found within monocytes (macrophage; data not shown) | expression of fatty acid uptake-related genes (macrophage; pre-treatment, response to palmitic acid (FIG. 5)) | safety of the dose ([4]; 10 mg/m1 drinkable, repeated 5 times on non-consecutive days) | inflammatory response in monocytes (CD45+, Ly6C+, CD11b+ cells) ([4]; drinkable, 30 minutes prior to high fat food, blood four hours after food) | reduction of inflammatory upregulation ([4]; lower dose, four-hour acute high fat diet feeding) [%] | pro-inflammatory monocytes ([4]; lower dose, four-hour acute high fat diet feeding, control 34.2%) [%] | adipose tissue (fat) of livers [5, 6] | liver size [5, 6] | increase in inflammatory monocytes from long term HFD [5, 7] | weight gain resulting from HFD [5, 7]
1 | CCOC(=O)[C@@]1(CCCCCCOc2ccc(Cl)cc2)CO1 [Etomoxir] | increased lipid accumulation | – | – | – | – | – | – | – | – | – | – | – | – | – | –
2 | CCC/C=C/C/C=C/C=C/C=NNN=O [Triacsin C, N-(((2E,4E,7E)-undeca-2,4,7-trienylidene)amino)nitrous amide] | no significant change in apparent lipid accumulation | prevents lipid accumulation | little to no change in inflammatory markers | reduce infiltration markers | reduce the upregulation of monocytic inflammatory markers | reduced the amount of intracellular fat found within monocytes | inhibited expression of fatty acid uptake-related genes | safe | inhibit the inflammatory response in monocytes | 10 | 25.4 | significantly less adipose tissue | smaller | prevented the increase in inflammatory monocytes | dramatically prevented
